As a reminder, the EC50 is the concentration needed to bring the measured effect to its halfway point.

This test deals with Stimulator of interferon genes protein (Homo sapiens, UniProt Q86WV6). Put plainly: Activation of human STING R232 variant transfected in HEK293T cells expressing ISRE.ISG54 luciferase reporter assessed as secretory reporter gene activity by measuring luciferase level incubated for 20 hrs by luminometer. The class given is cell-based. In general terms: In a reporter assay the amount or activity of a reporter protein is the signal.
Sequence of Stimulator of interferon genes protein (Q86WV6 whole entry, looked up): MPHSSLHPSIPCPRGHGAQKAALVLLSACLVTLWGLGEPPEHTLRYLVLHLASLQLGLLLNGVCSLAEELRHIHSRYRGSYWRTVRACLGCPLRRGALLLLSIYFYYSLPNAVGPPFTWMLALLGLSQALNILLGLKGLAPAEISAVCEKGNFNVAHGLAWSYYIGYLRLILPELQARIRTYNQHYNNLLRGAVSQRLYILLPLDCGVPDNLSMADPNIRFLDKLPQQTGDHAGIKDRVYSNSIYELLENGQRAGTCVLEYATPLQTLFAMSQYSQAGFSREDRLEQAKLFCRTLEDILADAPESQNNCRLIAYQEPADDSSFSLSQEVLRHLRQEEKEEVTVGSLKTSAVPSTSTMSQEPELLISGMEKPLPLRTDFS
As to `C[C@@H]1Sc2ccc(C(=O)NCc3cc4cc(F)ccc4o3)cc2-n2c(-c3ccc(F)cc3)nnc21`, the EC50 was determined as 0.04 µM.
Turning to `C[C@H]1Sc2ccc(C(=O)NCc3cc4cc(F)ccc4o3)cc2-n2c(-c3ccc(F)cc3)nnc21`, the EC50 came to 1.09 µM.
With `O=C(NCc1c(F)cc(F)cc1F)c1ccc2c(c1)-n1c(nnc1-c1ccccc1)CS2`, the EC50 was 2.08 µM.
For `CC1Sc2ncc(C(=O)NCc3cc4ccccc4o3)cc2-n2c(-c3ccccc3)nnc21` (racemic), the EC50 was found to be 0.414 µM.
Then `CC1Sc2ccc(C(=O)NCc3c(F)cc(F)cc3F)cc2-n2c(Cc3ccccc3)nnc21` (racemic), with 1.54 µM; and `CC1Sc2ccc(C(=O)NCc3cc4cc(F)ccc4o3)cc2-n2c(-c3ccc(F)cc3)nnc21` (racemic), with 0.048 µM; and `CC1Sc2ccc(C(=O)NCc3c(F)cc(F)cc3F)cc2-n2c(-c3ccc(F)cc3)nnc21` (racemic), with 0.373 µM.
Consider `CC1Sc2ccc(C(=O)NCc3cc4cc(F)ccc4o3)cc2-n2c(-c3ccc(F)cc3F)nnc21` (racemic), for which the EC50 was 0.053 µM.
Consider `Cc1cccc(-c2nnc3n2-c2cc(C(=O)NCc4c(F)cc(F)cc4F)ccc2SC3C)c1` (racemic), for which the EC50 was determined as 1.56 µM.
The value for `CC1Sc2ccc(C(=O)NCc3cc4ccc(F)cc4o3)cc2-n2c(-c3ccc(F)cc3)nnc21` (racemic) was 0.065 µM.
Turning to `CC1Sc2ccc(C(=O)NCc3cc4cc(F)c(F)cc4o3)cc2-n2c(-c3ccc(F)cc3)nnc21` (racemic), the EC50 was 0.045 µM.
As to `CC1Sc2ccc(C(=O)NCc3c(F)cc(F)cc3F)cc2-n2c(-c3cccc(F)c3)nnc21` (racemic), the EC50 turned out to be 2.88 µM.
Turning to `CC1Sc2ccc(C(=O)NCc3c(F)cc(F)cc3F)cc2-n2c(-c3ccncc3)nnc21` (racemic), the EC50 was 1.63 µM.
The value for `CC1Sc2ccc(C(=O)NCc3c(F)cc(F)cc3F)cc2-n2c(-c3ccccc3F)nnc21` (racemic) was 0.804 µM; that for `CC1Sc2ccc(C(=O)NCc3c(F)cc(F)cc3F)cc2-n2c(-c3ccc(Cl)cc3F)nnc21` (racemic) was 1.97 µM.
`Cc1ccc(-c2nnc3n2-c2cc(C(=O)NCc4c(F)cc(F)cc4F)ccc2SC3C)cc1` (racemic): the EC50 came to 3.81 µM.
The value for `CC1Sc2ncc(C(=O)NCc3cc4cc(F)ccc4o3)cc2-n2c(-c3ccc(F)cc3)nnc21` (racemic) was 0.111 µM.

The values above are taken from ChEMBL document CHEMBL6182884, “Synthesis and structure-activity evaluation of a series of novel tricyclic STING activators” (Eur J Med Chem, 2025).
